Measured values as given in patent publication US9144251B2, “High-potency sweetener composition with mineral and compositions sweetened therewith” (The Coca-Cola Company, priority 2005, dated 2015).

Test: Sensory evaluation of sweetness linger and sugar-like taste by a panel of experts (Example Sets G and H)
Assay type: in vivo
Set-up: key: 0=no sweetness linger; 1 very slight sweetness linger; 2=slight sweetness linger; 3 moderate sweetness linger; 4=moderately high sweetness linger; 5=high sweetness linger
Conditions: scale 0-5; for Sweetness Linger rating (defined anchors of the scale): sucrose, 500 ppm of REBA control sample
Procedure: Sensory evaluation of the samples prepared in Example Set G was carried out under the following protocol, similar to that described hereinabove. In this test protocol, none of the samples were swallowed. All samples were expectorated and the mouth was rinsed with water after the tasting. Immediately upon sensing maximal sweetness, the sample was expectorated, the mouth was rinsed with water and the rate of sweetness decay (“Sweetness Linger”) was measured, where attention was focused on the sweetness 3-4 min after the water rinse. After sample tasting was complete, a salty oyster cracker was chewed followed by a water rinse, and at least 5 minutes followed before tasting the next sample. The sweetness linger was rated by a panel of experts in the sensory evaluation of foods and beverages using the following scale: 0=no sweetness linger, 1 very slight sweetness linger, 2=slight sweetness linger, 3 moderate sweetness linger, 4=moderately high sweetness linger, 5=high sweetness linger.
The “Sweetness Linger” rating for sucrose observed by this protocol is defined as 0. The Sweetness Linger of a 500 ppm of REBA control sample is defined as 5. Experimental samples were tasted by the same protocol, always allowing sufficient time between samples to ensure re-equilibration of the sensory system. Re-tasting of control samples during the course of the experiment was allowed and encouraged.
The comparison taste test was performed between two controls and addition of sweet taste improving additive on the onset and/or sweetness linger.
Sweet taste improving compositions were combined with a REBA solution to determine their effect on sweetness linger. Screening of the initial sample, or further dilutions, allowed identification of concentrations which were just above-threshold, herein defined as “near-threshold concentrations.” The near-threshold additive concentrations, a 6- to 100-fold higher higher additive concentration (depending on the off-taste intensity), and a mid-level additive concentration (halfway between the near-threshold and higher additive concentration) were evaluated to determine the effect on sweetness linger of a REBA solution.
Formulations of a 500 ppm REBA in a phosphoric acid solution (75%) at a pH of 2.5 with phosphoric acid or a pH of 3.1 with citric acid and potassium citrate were prepared prior to the addition of the additives at the three levels of concentration.
Sensory evaluation using the protocol described in Example Set G then was used to evaluate the sweetness linger of the REBA solutions.

Molecule	sweetness linger rating, control sample (8 g of sugar in 100 ml of citrate buffer)	sweetness linger rating, control sample (10 g of sugar in 100 ml carbon treated water, phosphoric acid (75%) to pH 2.4-2.5)	Sweetness Linger rating (defined anchors of the scale)	sweetness linger rating, control sample (400 ppm REBA in citric acid/potassium citrate composition equivalent to diet lemon-lime beverage, no additive)	sweetness linger rating, control sample (500 ppm in carbon-treated water, phosphoric acid (75%) to pH 2.4-2.5, no additive)
OC[C@H]1O[C@@](CO)(O[C@H]2O[C@H](CO)[C@@H](O)[C@H](O)[C@H]2O)[C@@H](O)[C@@H]1O [sugar, sucrose]	0	0	0		
rebaudioside A			5	5	5
